We go through two compounds from patent US8084502B2, “Use of agmatine for protection of retinal ganglion cells” (priority 2007, dated 2011).

One experiment has as its system caspase-3. Description: Caspase-3 activity (colorimetric, Ac-DEVD-pNA cleavage) after hypoxia. The class given is cell-based, rat. Conditions: hypoxia 24 hours; 100 μM of agmatine or 50 μM of Z-VAD-FMK. Here is the method:
The RGC-5 cell line, which is a RGC line developed from post-natal Sprague-Dawley rats, was grown in modified Dulbecco's Modified Eagle's Medium (DMEM; Gibco) supplemented with 10% of heat inactivated fetal bovine serum (Gibco) and 100 U/mL of penicillin and 100 μg/mL of streptomycin (Gibco). The cells were passaged every 2 to 3 days, and the cultures incubated at 37° C. in 5% of CO2 and air. […] For all experiments, cells were used at an 80% confluence. Cultures were transferred into a closed hypoxic chamber (Form a Scientific Co.) in which oxygen level (5% of O2, 5% of CO2, 90% of N2) and temperature (37° C.) were controlled. After washing twice with deoxygenated serum-free DMEM, cells were maintained in the hypoxic chamber. Control cells were not exposed to hypoxia. Agmatine or BDNF were added to the culture medium at the start of injury as indicated. Caspase-3 activity was measured using the CaspACE™ colorimetric assay system (Promega, Cat no. G7220) according to the manufacturer's instructions. Briefly, cells were harvested and resuspended in cell lysis buffer (10^8 cells/mL). […] After incubating at 37° C. for 4 hours, absorbance was measured using a microplate reader at 405 nm. Absorbance of each sample was determined by subtraction of the mean absorbance of the blank from that of each sample.

For another experiment, the system named is RGC-5. Description: LDH assay, TNF-α-induced cell death. The class given is cell-based, rat. On the procedure: The RGC-5 cell line, which is an RGC line developed from post-natal Sprague-Dawley rats, was grown in modified DMEM (Gibco) supplemented with 10% of heat inactivated fetal bovine serum (Gibco) and 100 U/mL of penicillin and 100 μg/mL of streptomycin (Gibco). The cells were passaged every 2 to 3 days and incubated at 37° C. in 5% of CO2 and air. At cultivation, the cells had the same morphology. For all experiments, cells were used at 80% of confluence.
After washing twice with PBS, cells were cultured in serum-free DMEM and treated with either 10 or 50 ng/mL of recombinant rat TNF-α (Chemicon) for up to 48 hours. The control cells were not exposed to TNF-α. 100 μM of agmatine was added to the culture medium at the start of injury as indicated.
Cell viability was quantified by measuring the amounts of LDH released from the injured cells after TNF-α administration. LDH release is expressed as a value relative to the value of 100, which is the maximum LDH release that occurs after freezing each culture at −70° C. overnight and then rapidly thawing, thus inducing nearly complete cell damage. All experiments were performed in at least quadruplicate, and repeated at least eight times using cell cultures derived from different platings.

Where a SMILES comes first, the peptide text is derived from it. The star is where a group is joined. Cbz = O=C(OCc1ccccc1)*; CH2F = FC*

Consider `COC(=O)C[C@H](NC(=O)[C@H](C)NC(=O)[C@@H](NC(=O)OCc1ccccc1)C(C)C)C(=O)CF` [Z-VAD-FMK, reference compound] (Cbz-Val-Ala-Asp(OMe)-CH2F), for which, in the experiment on caspase-3, the “hypoxia-induced caspase-3 activity” value is “equally suppressed”.

TNF-α: the LDH release with RGC-5 (10 ng/mL of TNF-α alone, 24 hours) is given as 7.04±3.26%; in the experiment on RGC-5 (10 ng/mL of TNF-α alone, 48 hours), 10.16±1.77%; with RGC-5 (50 ng/mL of TNF-α alone, 24 hours) it was 13.41±6.20%; in the experiment on RGC-5 (50 ng/mL of TNF-α alone, 48 hours), 17.00±1.92%.
